Assay results: patent publication US10759796B2, “CXCR4 inhibitors and uses thereof” (X4 Pharmaceuticals, Inc., priority 2016, dated 2020)

system: not listed separately; assay: Rat pharmacokinetics and brain penetration (IV and PO); format: in vivo; settings: male, SD, brain and plasma; Rat, 3 mg/kg IV; 10 mg/kg PO; read-out: Kp (brain/plasma drug concentration ratio)
Protocol: (§1) Example 29: Pharmacokinetics and Brain Penetration Experiment to Determine Brain and Plasma Concentrations of Compounds After IV Administration to Male CD1 Mice or Male SD Rat
The study design consisted of 2 groups (24 animals and 18 animals) and administrating the drug [IV: 3 mg/kg (1.5 mL/kg) via foot dorsal vein], [PO: 10 mg/kg (5 mL/kg) via oral gavage] and collecting samples at terminal bleeding for plasma, brain and CSF at 0.25, 0.5, 1, 4, 8 and 24 hr. The IV and PO dosing solutions were prepared in 50 mM citrate buffer (pH 4.0) at 2 mg/mL. The blood collection was performed as follows: the animal was restrained manually at the designated time points, approximately 150 μL of blood sample was collected via cardiac puncture vein into EDTA-2K tubes. The blood samples were maintained in wet ice first and centrifuged to obtain plasma (2000 g, 4° C., 5 min) within 15 minutes post sampling. The brain collection was performed as follows: a mid-line incision was made in the animal's scalp and the skin was retracted. Using small bone cutters and rongeurs, the skull overlying the brain was removed. The brain was removed using a spatula and rinsed with cold saline. The brain was placed in screw-top tubes and then stored under −70° C. until analysis. The CSF collection was performed as follows: the animal was euthanized under deep anesthesia with air bubble tail vein injection. The CSF was collected by direct puncture of butterfly needle into the cisterna magna, using the occipital bone and the wings of the atlas as landmarks. A piece of white paper was used as a background to monitor color change in the sample just above the needle during collection. Upon observation of color change, the PE tubing was quickly clamped off above the color change and cut just above the clamped site. The clear sample was drawn into the syringe.
Plasma Samples Preparation:
An aliquot of 30 μL sample was added with 100 MeCN containing 100 ng/mL IS (Dexamethasone). The mixture was vortexed for 10 min and centrifuged at 5800 rpm for 10 min. An aliquot of 40 μL supernatant was added with 40 μl H2O and the mixture was vortexed for 5 min. An aliquot of 2 μL supernatant was injected for LC-MS/MS analysis.
Brain Samples Preparation:
The sample was homogenized with 3 volumes (v/w) of PBS. An aliquot of 30 μL sample was added with 100 μL ACN containing 100 ng/mL IS (Dexamethasone). The mixture was vortexed for 10 min and centrifuged at 5800 rpm for 10 min. An aliquot of 40 μL supernatant was added with 40 μl H2O and the mixture was vortexed for 5 min. An aliquot of 2 μL supernatant was injected for LC-MS/MS analysis.
An aliquot of 10 μL sample was added with 10 μLMeOH/H2O (1/1) and […], ACN containing 200 ng/mL IS (Dexamethasone) 120 μL H2O. The mixture was vortexed for 5 min. An aliquot of 2 μL supernatant was injected for LC-MS/MS analysis.
The sample analysis was performed on UPLC-MS/MS-02 (Triple Quad 4000) under the following conditions: positive ion, ESI, MRM detection using dexamethasone as internal standard. HPLC conditions: mobile phase A: H2O-0.1% FA, mobile phase B: MeCN-0.1% FA on ACQUITY UPLC HSS T3 (2.1×50 mm, 1.8 μm) column at 60° C.

Structure (SMILES) | Kp
Cc1cccnc1[C@@H]1CCC[C@H](c2nc3cccc(N4CCN(C)CC4)n3c2Cl)N1 [Compound I-146] | 1.82

same assay, conditions: male, SD, brain and plasma; Rat, 3 mg/kg IV; 10 mg/kg PO; read-out: Kp, uu (unbound brain/unbound plasma drug concentration ratio)

Structure (SMILES) | Kp uu
Cc1cccnc1[C@@H]1CCC[C@H](c2nc3cccc(N4CCN(C)CC4)n3c2Cl)N1 [Compound I-146] | 0.18

same assay, conditions: male, SD, plasma; Rat, 3 mg/kg IV; 10 mg/kg PO

Structure (SMILES) | clearance
Cc1cccnc1[C@@H]1CCC[C@H](c2nc3cccc(N4CCN(C)CC4)n3c2Cl)N1 [Compound I-146] | 24.3 mL/min/kg

same assay, conditions: male, SD, plasma; Rat, 3 mg/kg IV; 10 mg/kg PO; read-out: F % (oral bioavailability)

Structure (SMILES) | bioavailability
Cc1cccnc1[C@@H]1CCC[C@H](c2nc3cccc(N4CCN(C)CC4)n3c2Cl)N1 [Compound I-146] | 70.1%

same assay, conditions: male, SD, plasma; Rat, 3 mg/kg IV; 10 mg/kg PO; read-out: t½ (converted)

Structure (SMILES) | half-life
Cc1cccnc1[C@@H]1CCC[C@H](c2nc3cccc(N4CCN(C)CC4)n3c2Cl)N1 [Compound I-146] | 7.89 h

same assay, conditions: male, SD; Rat brain, 3 mg/kg IV; 10 mg/kg PO; read-out: AUClast (b)

Structure (SMILES) | AUC(0-t)
Cc1cccnc1[C@@H]1CCC[C@H](c2nc3cccc(N4CCN(C)CC4)n3c2Cl)N1 [Compound I-146] | 7800 ng·h/mL

same assay, conditions: male, SD; Rat plasma, 3 mg/kg IV; 10 mg/kg PO; read-out: AUClast (p)

Structure (SMILES) | AUC(0-t)
Cc1cccnc1[C@@H]1CCC[C@H](c2nc3cccc(N4CCN(C)CC4)n3c2Cl)N1 [Compound I-146] | 4280 ng·h/mL

system: plasma proteins; assay: Fraction of drug unbound to plasma proteins, mouse; format: in vitro ADME; settings: Mouse plasma proteins (Table 10)

Structure (SMILES) | Fu (p) %
Cc1cccnc1[C@@H]1CCC[C@H](c2nc3cccc(N4CCN(C)CC4)n3c2Cl)N1 [Compound I-146] | 5.3%

system: not listed separately; assay: Fraction of drug unbound to plasma proteins, rat; format: in vitro ADME; settings: read-out: Fu (p)

Structure (SMILES) | fraction unbound
Cc1cccnc1[C@@H]1CCC[C@H](c2nc3cccc(N4CCN(C)CC4)n3c2Cl)N1 [Compound I-146] | 0.07

system: not listed separately; assay: Mouse brain uptake assay (pharmacokinetics and brain penetration after IV administration), 0-1 h, 3 time points; format: in vivo, Male CD1 Mice; settings: male, CD1, brain and plasma; Mouse, 3 mg/kg IV, 0-1 h; read-out: Kp, uu (unbound brain/unbound plasma drug concentration ratio)
Protocol: as §1
(§2) The study design (9 animals) consisted of administrating the drug (IV: 3 mg/kg (5 mL/kg) via tail vein injection) and collecting samples at terminal bleeding for plasma and brain at 0.083, 0.5 and 1 h. The blood collection was performed as follows: the animal was restrained manually and approximately 150 μL blood/time point was collected into a dipotassium EDTA tube via retro orbital puncture under anesthesia with isoflurane. The blood sample was put on ice and centrifuged to obtain a plasma sample (2000 g, 5 min under 4° C.) within 15 minutes. The brain collection was performed as follows: a mid-line incision was made in the animal's scalp and the skin was retracted. Using small bone cutters and rongeurs, the skull overlying the brain was removed. The brain was removed using a spatula and the brain rinsed with cold saline. The brain was placed in screw-top tubes, and the tubes were stored at −70° C. until analysis. The IV dosing solution was prepared in 50 mM citrate buffer (pH 4.0) at 0.6 mg/mL.
Plasma Sample Preparation:
(§3) An aliquot of 30 μL sample was added to 150 μL MeCN containing 50 ng/mL IS (Dexamethasone). The mixture was vortexed for 5 min and centrifuged at 14,000 rpm for 5 min. An aliquot of 5 μL supernatant was injected for LC-MS/MS analysis.
Brain Sample Preparation:
(§4) An aliquot of 30 μL brain homogenate (brain:PBS=1:3, w/v) sample was added to 150 μL IS in ACN (Dexamethasone, 50 ng/mL). The mixture was vortexed for 5 min and centrifuged at 14,000 rpm for 5 min. An aliquot of 5 μL supernatant was injected for LC-MS/MS analysis.
(§5) The sample analysis was performed on LCMS/MS-003 (API4000, triple quadruple) under the following conditions: positive ion, ESI, MRM detection using dexamethasone as internal standard. HPLC conditions: mobile phase A: H2O (0.025% formic acid (FA) with 1 mM NH4OAc); mobile phase B: MeOH (0.025% FA with 1 mM NH4OAc) on Waters X-Bridge C18 (2.1×50 mm, 2.5 μm) column at 60° C.

Structure (SMILES) | Kp uu
Cc1cccnc1[C@@H]1CCC[C@H](c2nc3cccc(N4CCN(C)CC4)n3c2Cl)N1 [Compound I-146] | 0.21

same assay, conditions: male, CD1, mouse, brain and plasma, iv, 3 mg/kg; read-out: Kp (brain/plasma drug concentration ratio)

Structure (SMILES) | Kp
Cc1cccnc1[C@@H]1CCC[C@H](c2nc3cccc(N4CCN(C)CC4)n3c2Cl)N1 [Compound I-146] | 1.86

same assay, conditions: male, CD1, plasma; Mouse, 3 mg/kg IV, 0-1 h, 3 time points

Structure (SMILES) | clearance
Cc1cccnc1[C@@H]1CCC[C@H](c2nc3cccc(N4CCN(C)CC4)n3c2Cl)N1 [Compound I-146] | 7.22 mL/min/kg

same assay, conditions: male, CD1, plasma; Mouse, 3 mg/kg IV, 0-1 h, 3 time points; read-out: t½ (converted)

Structure (SMILES) | half-life
Cc1cccnc1[C@@H]1CCC[C@H](c2nc3cccc(N4CCN(C)CC4)n3c2Cl)N1 [Compound I-146] | 6.02 h

same assay, conditions: male, CD1; Mouse brain, 3 mg/kg IV, time zero to 1 hr; read-out: AUClast (b)

Structure (SMILES) | AUC(0-t)
Cc1cccnc1[C@@H]1CCC[C@H](c2nc3cccc(N4CCN(C)CC4)n3c2Cl)N1 [Compound I-146] | 1640 ng·h/mL

same assay, conditions: male, CD1; Mouse plasma, 3 mg/kg IV, time zero to 1 hr; read-out: AUClast (p)

Structure (SMILES) | AUC(0-t)
Cc1cccnc1[C@@H]1CCC[C@H](c2nc3cccc(N4CCN(C)CC4)n3c2Cl)N1 [Compound I-146] | 884 ng·h/mL

system: not listed separately; assay: Fraction of drug unbound to brain proteins, rat; format: in vitro ADME; settings: read-out: Fu (b)

Structure (SMILES) | fraction unbound
Cc1cccnc1[C@@H]1CCC[C@H](c2nc3cccc(N4CCN(C)CC4)n3c2Cl)N1 [Compound I-146] | 0.007

system: not listed separately; assay: Mouse brain uptake assay, 0-24 h, 4 time points; format: in vivo; settings: male, CD1, Mouse brain, 3 mg/kg IV, 4 time points, read-out: AUClast (b)
Protocol: as §2, §3, §4, §5
A similar experiment was performed with 4 time points taken from 0-24 h.

Structure (SMILES) | AUC(0-t)
Cc1cccnc1[C@@H]1CCC[C@H](c2nc3cccc(N4CCN(C)CC4)n3c2Cl)N1 [Compound I-146] | 34800 ng·h/mL

same assay, conditions: male, CD1, Mouse plasma, 3 mg/kg IV, 4 time points, read-out: AUClast (p)

Structure (SMILES) | AUC(0-t)
Cc1cccnc1[C@@H]1CCC[C@H](c2nc3cccc(N4CCN(C)CC4)n3c2Cl)N1 [Compound I-146] | 6590 ng·h/mL

same assay, conditions: male, CD1, brain and plasma, Mouse, 3 mg/kg IV, 4 time points

Structure (SMILES) | Kp | Kp uu
Cc1cccnc1[C@@H]1CCC[C@H](c2nc3cccc(N4CCN(C)CC4)n3c2Cl)N1 [Compound I-146] | 5.29 | 0.6

same assay, conditions: male, CD1, plasma, Mouse, 3 mg/kg IV, 4 time points

Structure (SMILES) | clearance
Cc1cccnc1[C@@H]1CCC[C@H](c2nc3cccc(N4CCN(C)CC4)n3c2Cl)N1 [Compound I-146] | 7.22 mL/min/kg

same assay, conditions: male, CD1, plasma, Mouse, 3 mg/kg IV, 4 time points, read-out: t½ (converted)

Structure (SMILES) | half-life
Cc1cccnc1[C@@H]1CCC[C@H](c2nc3cccc(N4CCN(C)CC4)n3c2Cl)N1 [Compound I-146] | 6.02 h
